Drawing on US9090576B2, “2-substituted-p-quinone derivatives for treatment of oxidative stress diseases” (Edison Pharmaceuticals, Inc., priority 2008, dated 2015), this text covers EC50 for 22 molecules.

Like-named read-outs stand apart in the source and are kept apart here.

Assay type in all cases: cell-based
The subject of assay [1] is Human dermal fibroblasts from Friedreich's Ataxia patients. As to the kind of experiment: Rescue of BSO-stressed FRDA fibroblasts (Calcein AM viability). Particulars: BSO-stressed FRDA fibroblasts (GM04078). The procedure:
An initial screen was performed to identify compounds effective for the amelioration of redox disorders. Test samples, 4 reference compounds (Idebenone, decylubiquinone, Trolox and α-tocopherol acetate), and solvent controls were tested for their ability to rescue FRDA fibroblasts stressed by addition of L-buthionine-(S,R)-sulfoximine (BSO), as described in Jauslin et al., Hum. Mol. Genet. 11(24):3055 (2002), Jauslin et al., FASEB J. 17:1972-4 (2003), and International Patent Application WO 2004/003565. […] This specific BSO-mediated cell death can be prevented by administration of antioxidants or molecules involved in the antioxidant pathway, such as α-tocopherol, selenium, or small molecule glutathione peroxidase mimetics. However, antioxidants differ in their potency, i.e. the concentration at which they are able to rescue BSO-stressed FRDA fibroblasts.
MEM (a medium enriched in amino acids and vitamins, catalog no. 1-31F24-I) and Medium 199 (M199, catalog no. 1-21F22-I) with Earle's Balanced Salts, without phenol red, were purchased from Bioconcept. Fetal Calf Serum was obtained from PAA Laboratories. Basic fibroblast growth factor and epidermal growth factor were purchased from PeproTech. Penicillin-streptomycin-glutamine mix, L-buthionine (S,R)-sulfoximine, (+)-α-tocopherol acetate, decylubiquinone, and insulin from bovine pancreas were purchased from Sigma. Trolox (6-hydroxy-2,5,7,8-tetramethylchromane-2-carboxylic acid) was obtained from Fluka. Idebenone was obtained from Chemo Iberica. Calcein AM was purchased from Molecular Probes. Cell culture medium was made by combining 125 ml M199 EBS, 50 ml Fetal Calf Serum, 100 U/ml penicillin, 100 μg/ml streptomycin, 2 mM glutamine, 10 μg/ml insulin, 10 ng/ml EGF, and 10 ng/ml bFGF; MEM EBS was added to make the volume up to 500 ml. A 10 mM BSO solution was prepared by dissolving 444 mg BSO in 200 ml of medium with subsequent filter-sterilization. During the course of the experiments, this solution was stored at +4° C. The cells were obtained from the Coriell Cell Repositories (Camden, N.J.; repository number GM04078) and grown in 10 cm tissue culture plates. Every third day, they were split at a 1:3 ratio.
The test samples were supplied in 1.5 ml glass vials. The compounds were diluted with DMSO, ethanol or PBS to result in a 5 mM stock solution. Once dissolved, they were stored at −20° C. Reference antioxidants (Idebenone, decylubiquinone, α-tocopherol acetate and trolox) were dissolved in DMSO.
Test samples were screened according to the following protocol:
(§1) A culture with FRDA fibroblasts was started from a 1 ml vial with approximately 500,000 cells stored in liquid nitrogen. Cells were propagated in 10 cm cell culture dishes by splitting every third day in a ratio of 1:3 until nine plates were available. Once confluent, fibroblasts were harvested. For 54 micro titer plates (96 well-MTP) a total of 14.3 million cells (passage eight) were re-suspended in 480 ml medium, corresponding to 100 μl medium with 3,000 cells/well. The remaining cells were distributed in 10 cm cell culture plates (500,000 cells/plate) for propagation. The plates were incubated overnight at 37° C. in an atmosphere with 95% humidity and 5% CO2 to allow attachment of the cells to the culture plate.
(§2) MTP medium (243 μl) was added to a well of the microtiter plate. The test compounds were unfrozen, and 7.5 μl of a 5 mM stock solution was dissolved in the well containing 243 μl medium, resulting in a 150 μM master solution. Serial dilutions from the master solution were made. The period between the single dilution steps was kept as short as possible (generally less than 1 second).
Plates were kept overnight in the cell culture incubator. The next day, 10 μl of a 10 mM BSO solution were added to the wells, resulting in a 1 mM final BSO concentration. Forty-eight hours later, three plates were examined under a phase-contrast microscope to verify that the cells in the 0% control (wells E1-H1) were clearly dead. […]

The subject of assay [2] is human dermal fibroblasts from LHON patients. As to the kind of experiment: Rescue of BSO-stressed fibroblasts from LHON patients (screen as Example A). To be noted: Fibroblast, read-out: EC50, protection against LHON. How it is done:
as §1, §2
(§3) Plates were kept overnight in the cell culture incubator. The next day, 10 μl of a 10 mM BSO solution were added to the wells, resulting in a 1 mM final BSO concentration. Forty-eight hours later, three plates were examined under a phase-contrast microscope to verify that the cells in the 0% control (wells E1-H1) were clearly dead. The medium from all plates was discarded, and the remaining liquid was removed by gently tapping the plate inversed onto a paper towel.
(§4) 100 μl of PBS containing 1.2 μM Calcein AM were then added to each well. The plates were incubated for 50-70 minutes at room temperature. After that time the PBS was discarded, the plate gently tapped on a paper towel and fluorescence (excitation/emission wavelengths of 485 nm and 525 nm, respectively) was read on a Gemini fluorescence reader. Data was imported into Microsoft Excel (EXCEL is a registered trademark of Microsoft Corporation for a spreadsheet program) and used to calculate the EC50 concentration for each compound.
Compounds of the invention were screened as described in Example A, but substituting FRDA cells with Leber's Hereditary Optic Neuropathy (LHON) cells obtained from the Coriell Cell Repositories (Camden, N.J.; repository number GM03858). The compounds were tested for their ability to rescue human dermal fibroblasts from LHON patients from oxidative stress.

The subject of assay [3] is human dermal fibroblasts from Huntington's patients. The assay can be described thus: Rescue of BSO-stressed fibroblasts from Huntington's patients (screen as Example A). To be noted: Fibroblast, read-out: EC50, protection against Huntington's. The procedure:
as §1, §2, §3, §4
Compounds of the invention were tested using the screen as described in Example A, but substituting FRDA cells with Huntington's cells obtained from the Coriell Cell Repositories (Camden, N.J.; repository number GM 04281). The compounds were tested for their ability to rescue human dermal fibroblasts from Huntington's patients from oxidative stress.

[4] abbreviates: less than about 150 nM, read-out: EC50, protection against FRDA.
Setting [5] is: BSO-stressed LHON fibroblasts (GM03858), less than about 150 nM.
[6] abbreviates: BSO-stressed Huntington's fibroblasts (GM 04281), less than about 150 nM.
Where [7] appears, read: 1 mM BSO, 48 h, first of three experiments, read-out: EC50 Value 1.
The mark [8] stands for this setting: 1 mM BSO, 48 h, second of three experiments, read-out: EC50 Value 2.
Setting [9] is: 1 mM BSO, 48 h, third of three experiments, read-out: EC50 Value 3.
Setting [10] is: average of three experiments, read-out: EC50 Average.

In general, EC50 refers to the midpoint of the concentration-response curve. For the molecule `CCNC(=O)NCCC1=C(C)C(=O)C(C)=C(c2ccc(Cl)cc2)C1=O` [1-(2-(5-(4-chlorophenyl)-2,4-dimethyl-3,6-dioxocyclohexa-1,4-dienyl)ethyl)-3-ethylurea], the EC50 in assay [1] (setting [4]) and in assay [2] (setting [5]) was less than 150 nM in each case. As to `CC1=C(C)C(=O)C(CCCC(=O)N2CCCC2)=C(C)C1=O` [2,3,5-trimethyl-6-(4-oxo-4-(pyrrolidin-1-yl)butyl)cyclohexa-2,5-diene-1,4-dione], the EC50 in assay [1] (setting [4]) is less than 150 nM.

As to `CC1=C(C)C(=O)C(CCCC(=O)N2CCC(F)(F)CC2)=C(C)C1=O` [2-(4-(4,4-difluoropiperidin-1-yl)-4-oxobutyl)-3,5,6-trimethylcyclohexa-2,5-diene-1,4-dione], the concentration giving a half-maximal response (EC50) in assay [2] (setting [5]) is less than 150 nM.

With `CC1=C(C)C(=O)C(CCCC(=O)N2CCN(C(=O)C3CCCCC3)CC2)=C(C)C1=O` [2-(4-(4-(cyclohexanecarbonyl)piperazin-1-yl)-4-oxobutyl)-3,5,6-trimethylcyclohexa-2,5-diene-1,4-dione], in assay [2] (setting [5]), the EC50 was less than 150 nM. Consider `CC1=C(C)C(=O)C(CCCC(=O)N2CCN(C(=O)c3ccccc3)CC2)=C(C)C1=O` [2-(4-(4-benzoylpiperazin-1-yl)-4-oxobutyl)-3,5,6-trimethylcyclohexa-2,5-diene-1,4-dione], for which the 50% effective concentration (EC50) in assay [2] (setting [5]) is less than 150 nM.

With `CC1=C(C)C(=O)C(CCC(C)C(=O)N2CCC(F)CC2)=C(C)C1=O` (stereo not shown) [2-(4-(4-fluoropiperidin-1-yl)-3-methyl-4-oxobutyl)-3,5,6-trimethylcyclohexa-2,5-diene-1,4-dione], the 50% effective concentration (EC50) in assay [3] (setting [6]) and in assay [2] (setting [5]) was less than 150 nM in each case.

As for `CC1=C(C)C(=O)C(CCCC(=O)N2CCC(F)CC2)=C(C)C1=O` [2-(4-(4-fluoropiperidin-1-yl)-4-oxobutyl)-3,5,6-trimethylcyclohexa-2,5-diene-1,4-dione], the half-maximal effective concentration (EC50) in assay [2] (setting [5]) was less than 150 nM. For `CC1=C(C)C(=O)C(CCC(C)C(=O)N2CCC(O)CC2)=C(C)C1=O` (stereo not shown) [2-(4-(4-hydroxypiperidin-1-yl)-3-methyl-4-oxobutyl)-3,5,6-trimethylcyclohexa-2,5-diene-1,4-dione], in assay [1] (setting [4]), the EC50 is less than 150 nM.

In the case of `CC1=C(C)C(=O)C(CCNC(=O)C(O)c2ccc(Cl)cc2)=C(C)C1=O` (stereo not shown) [2-(4-chlorophenyl)-2-hydroxy-N-(2-(2,4,5-trimethyl-3,6-dioxocyclohexa-1,4-dienyl)ethyl)acetamide], the EC50 in assay [3] (setting [6]) and in assay [2] (setting [5]) was less than 150 nM throughout.

Turning to `CC1=C(C)C(=O)C(CCNC(=O)C(O)c2ccccc2)=C(C)C1=O` (stereo not shown) [2-hydroxy-2-phenyl-N-(2-(2,4,5-trimethyl-3,6-dioxocyclohexa-1,4-dienyl)ethyl)acetamide], the concentration giving a half-maximal response (EC50) in assay [1] (setting [4]) and in assay [2] (setting [5]) was less than 150 nM in each case. On to `CC1=C(C)C(=O)C(CCC(C)C(N)=O)=C(C)C1=O` (stereo not shown) [2-methyl-4-(2,4,5-trimethyl-3,6-dioxocyclohexa-1,4-dienyl)butanamide], for which the EC50 in assay [2] (setting [5]) was less than 150 nM. For the molecule `CCCNC(=O)C(C)CCC1=C(C)C(=O)C(C)=C(C)C1=O` (stereo not shown) [2-methyl-N-propyl-4-(2,4,5-trimethyl-3,6-dioxocyclohexa-1,4-dienyl)butanamide], the EC50 in assay [3] (setting [6]) is less than 150 nM.

In the case of `CCNC(=O)N(C)CCC1=C(C)C(=O)C(C)=C(C)C1=O` [3-Ethyl-1-methyl-1-(2-(2,4,5-trimethyl-3,6-dioxocyclohexa-1,4-dienyl)ethyl)urea], in assay [1] (setting [4]), the EC50 was less than 150 nM. Turning to `CC1=C(C)C(=O)C(CCNC(=O)N2CCC(=O)CC2)=C(C)C1=O` [4-Oxo-N-(2-(2,4,5-trimethyl-3,6-dioxocyclohexa-1,4-dienyl)ethyl)piperidine-1-carboxamide], the EC50 in assay [3] and in assay [2] was less than 150 nM each time. On to `CC1=C(C)C(=O)C(CCNC(=O)N2CCC(O)CC2)=C(C)C1=O` [4-hydroxy-N-(2-(2,4,5-trimethyl-3,6-dioxocyclohexa-1,4-dienyl)ethyl)piperidine-1-carboxamide], for which the EC50 in assay [2] (setting [5]) was less than 150 nM. Consider `CCCCCCCCCCC1=C(C)C(=O)C(OC)=C(OC)C1=O` [Decylubiquinone, decylubiquinone, reference compound], for which the EC50 in assay [1] (setting [7]) was 50 nM; in assay [1] (setting [8]) it was 35 nM; in assay [1] (setting [9]), 30 nM; in assay [1] (setting [10]), 38 nM. With `COC1=C(OC)C(=O)C(CCCCCCCCCCO)=C(C)C1=O` [Idebenone, reference compound], the EC50 was 1500 nM in assay [1] (setting [7]), 1000 nM in assay [1] (setting [8]), 1000 nM in assay [1] (setting [9]) and 1200 nM in assay [1] (setting [10]). For `CC1=C(C)C(=O)C(CCNC(=O)c2cccnc2)=C(C)C1=O` [N-(2-(2,4,5-trimethyl-3,6-dioxocyclohexa-1,4-dienyl)ethyl)nicotinamide], the EC50 in assay [2] (setting [5]) was less than 150 nM. Regarding `CC1=C(C)C(=O)C(CCNC(=O)N2CCCCC2)=C(C)C1=O` [N-(2-(2,4,5-trimethyl-3,6-dioxocyclohexa-1,4-dienyl)ethyl)piperidine-1-carboxamide], the 50% effective concentration (EC50) in assay [1] (setting [4]) is less than 150 nM.

Regarding `CC1=C(CCNC(=O)C2CCC(F)(F)CC2)C(=O)C(c2ccc(Cl)cc2)=C(C)C1=O` [N-(2-(5-(4-chlorophenyl)-2,4-dimethyl-3,6-dioxocyclohexa-1,4-dienyl)ethyl)-4,4-difluorocyclohexanecarboxamide], the EC50 in assay [1] (setting [4]) and in assay [2] (setting [5]) was less than 150 nM each time. `Cc1c(C)c2c(c(C)c1O)CCC(C)(C(=O)O)O2` (stereo not shown) [Trolox, 6-hydroxy-2,5,7,8-tetramethylchromane-2-carboxylic acid, reference compound]: the EC50 is 9000 nM in assay [1] (setting [7]), 9000 nM in assay [1] (setting [8]), 8000 nM in assay [1] (setting [9]) and 8700 nM in assay [1] (setting [10]).

As to `CC(=O)Oc1c(C)c(C)c2c(c1C)CCC(C)(CCC[C@H](C)CCC[C@H](C)CCCC(C)C)O2` (stereo partly drawn) [alpha-Tocopherol acetate, (+)-α-tocopherol acetate, reference compound], the EC50 in assay [1] (setting [7]) was 400 nM; in assay [1] (setting [8]), 150 nM; in assay [1] (setting [9]), 350 nM; in assay [1] (setting [10]) it was 300 nM.
